This note sets out measurements from ChEMBL document CHEMBL4610120, “New Broad-Spectrum Antibiotics Containing a Pyrrolobenzodiazepine Ring with Activity against Multidrug-Resistant Gram-Negative Bacteria” (J Med Chem, 2020).

Broadly, the MIC is the least concentration at which growth counts as inhibited. Higher therefore signals a need for much substance.

Values after ≈ are worked out from the molar mass of the structure shown. A value given as a limit tells only on which side of the number the result lay.

The test system of data set [1] is Klebsiella pneumoniae. The data set can be described thus: Antibacterial activity against multidrug-resistant Klebsiella pneumoniae NCTC 13368 measured after 10 passages by microdilution broth method. Format: functional. On the technique in general: Dilution methods test growth across graded concentrations, often in twofold steps.
Data set [2] concerns Acinetobacter baumannii. The data set can be described thus: Antimicrobial activity against Acinetobacter baumannii ATCC 17978 assessed as mutation frequency at 4 times MIC measured after 48 hrs. The class given is functional.
Data set [3] addresses T1, Protein RecA (Escherichia coli K-12) (UniProt P0A7G6).
T1 sequence (whole entry): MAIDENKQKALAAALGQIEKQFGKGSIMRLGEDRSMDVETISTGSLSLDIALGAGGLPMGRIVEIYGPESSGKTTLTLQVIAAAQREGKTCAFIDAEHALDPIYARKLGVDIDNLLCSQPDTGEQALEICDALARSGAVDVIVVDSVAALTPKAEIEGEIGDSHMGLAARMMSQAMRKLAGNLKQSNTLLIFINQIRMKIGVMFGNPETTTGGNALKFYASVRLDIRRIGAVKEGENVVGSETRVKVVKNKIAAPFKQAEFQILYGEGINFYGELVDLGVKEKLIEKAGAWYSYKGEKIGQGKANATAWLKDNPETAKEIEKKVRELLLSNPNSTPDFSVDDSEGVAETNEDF
The data set can be described thus: Induction of Escherichia coli K12 MG1655 recA promotor measured at 30 mins interval for 20 hrs by fluorescence assay relative to control. The note with it: Escherichia coli str. K-12 substr. MG1655.

The test system of data set [4] is Klebsiella pneumoniae. The data set can be described thus: Antimicrobial activity against Klebsiella pneumoniae M6 assessed as mutation frequency at 4 times MIC measured after 48 hrs. The class given is functional.
For data set [5], the target named is T2, Cell division inhibitor SulA (Escherichia coli K-12) (UniProt P0AFZ5).
T2 sequence (whole entry): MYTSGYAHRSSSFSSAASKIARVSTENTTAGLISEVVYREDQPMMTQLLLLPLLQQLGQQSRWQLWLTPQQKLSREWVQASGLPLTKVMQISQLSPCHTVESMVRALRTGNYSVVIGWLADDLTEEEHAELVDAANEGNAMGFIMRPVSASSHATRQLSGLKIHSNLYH
The experiment in a line: Induction of Escherichia coli K12 MG1655 sulA promotor measured at 30 mins interval for 20 hrs by fluorescence assay relative to control. The note with it: Escherichia coli str. K-12 substr. MG1655.

A further data set concerns Escherichia coli. The data set can be described thus: Antimicrobial activity against multidrug-resistant Escherichia coli NCTC 12923 assessed as mutation frequency at 4 times MIC measured after 48 hrs. Format: functional.
The target in data set [6] is T3, LexA repressor (Escherichia coli) (UniProt P0A7C2).
T3 sequence (whole entry): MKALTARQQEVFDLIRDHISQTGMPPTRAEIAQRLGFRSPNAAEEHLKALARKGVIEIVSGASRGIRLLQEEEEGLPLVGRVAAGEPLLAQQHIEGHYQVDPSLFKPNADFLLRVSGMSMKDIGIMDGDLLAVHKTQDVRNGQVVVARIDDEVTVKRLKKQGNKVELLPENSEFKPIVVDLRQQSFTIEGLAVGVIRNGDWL
The data set can be described thus: Induction of Escherichia coli K12 MG1655 lexA promotor measured at 30 mins interval for 20 hrs by fluorescence assay relative to control. The note with it: Escherichia coli str. K-12 substr. MG1655.

Data set [7] concerns the target T4, DNA repair protein RecN (Escherichia coli) (UniProt P05824).
T4 sequence (whole entry): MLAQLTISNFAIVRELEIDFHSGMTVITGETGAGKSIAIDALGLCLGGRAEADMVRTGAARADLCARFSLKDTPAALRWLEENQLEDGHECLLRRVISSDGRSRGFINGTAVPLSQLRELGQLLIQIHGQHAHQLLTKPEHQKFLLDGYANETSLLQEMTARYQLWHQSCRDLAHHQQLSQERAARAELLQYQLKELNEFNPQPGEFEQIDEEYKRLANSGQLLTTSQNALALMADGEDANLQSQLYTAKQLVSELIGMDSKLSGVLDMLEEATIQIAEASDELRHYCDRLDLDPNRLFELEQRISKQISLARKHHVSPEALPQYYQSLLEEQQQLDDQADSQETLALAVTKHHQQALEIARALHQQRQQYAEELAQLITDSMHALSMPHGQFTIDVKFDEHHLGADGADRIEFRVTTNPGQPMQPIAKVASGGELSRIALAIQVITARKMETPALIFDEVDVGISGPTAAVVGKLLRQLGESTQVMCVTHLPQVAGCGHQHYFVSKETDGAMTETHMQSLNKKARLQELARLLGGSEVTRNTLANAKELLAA
The experiment in a line: Induction of Escherichia coli K12 MG1655 recN promotor measured at 30 mins interval for 20 hrs by fluorescence assay relative to control. Conditions: Escherichia coli str. K-12 substr. MG1655.

For data set [8], the system named is Enterococcus faecalis. The experiment in a line: Antibacterial activity against vancomycin sensitive Enterococcus faecalis NCTC 775 by microdilution broth method. The class given is functional.
Data set [9] relates to Acinetobacter baumannii. The experiment in a line: Antimicrobial activity against multidrug-resistant Acinetobacter baumannii AYE by microdilution broth method. The class given is functional.
Data set [10] deals with Staphylococcus aureus. The data set can be described thus: Antibacterial activity against methicillin resistant Staphylococcus aureus NCTC 13616 by microdilution broth method. The class given is functional.
Data set [11] concerns Staphylococcus aureus. The data set can be described thus: Antibacterial activity against methicillin sensitive Staphylococcus aureus NCTC 6571 by microdilution broth method. The class given is functional.
A short description of data set [12]: Selectivity ratio of cytotoxicity against human WI38 cells to MIC for methicillin resistant Staphylococcus aureus NCTC 13277. Format: toxicity, cell-based.
The subject of data set [13] is Klebsiella pneumoniae. The experiment in a line: Antimicrobial activity against Klebsiella pneumoniae M6 by microdilution broth method. Format: functional.
Data set [14] in a line: Selectivity ratio of cytotoxicity against human WI38 cells to MIC for multidrug-resistant Klebsiella pneumoniae NCTC 13368. The class given is toxicity, cell-based.
Data set [15] deals with Pseudomonas aeruginosa. The experiment in a line: Antimicrobial activity against Pseudomonas aeruginosa PAO1 by microdilution broth method. Format: functional.
Data set [16] in a line: Selectivity ratio of cytotoxicity against human WI38 cells to MIC for vancomycin resistant Enterococcus faecalis NCTC 12201. The class given is toxicity, cell-based.
A short description of data set [17]: Selectivity ratio of cytotoxicity against human WI38 cells to MIC for methicillin resistant Staphylococcus aureus NCTC 13616. Format: toxicity, cell-based.
Data set [18] concerns Staphylococcus aureus. The data set can be described thus: Antibacterial activity against methicillin resistant Staphylococcus aureus NCTC 13277 by microdilution broth method. The class given is functional.
Data set [19] relates to DNA. The experiment in a line: Stabilization of 5'-FAM-TAT-AGA-TAT-AGA-TAT-TTT-ATA-TCT-ATA-TCT-ATA-3'-TAMRA DNA (unknown origin) assessed as reduction in change in melting temperature at 1:1 to 5:1 ligand to DNA ratio measured after 3 hrs by FRET-based assay relative to control. Format: ADME, nucleic-acid assay.
Data set [20] in a line: Selectivity ratio of cytotoxicity against human WI38 cells to MIC for vancomycin resistant Enterococcus faecium NCTC 12204. Format: toxicity, cell-based.
Data set [21] can be described thus: Cytotoxicity against human WI38 cells assessed as cell viability at 20 uM measured after 24 hrs by MTT assay relative to control. Format: cell-based, WI-38. Conditions: read-out: Activity.
The nature of data set [22]: Selectivity ratio of cytotoxicity against human WI38 cells to MIC for multidrug-resistant Pseudomonas aeruginosa NCTC 13437. The class given is toxicity, cell-based.
The test system of data set [23] is Pseudomonas aeruginosa. The data set can be described thus: Antimicrobial activity against multidrug-resistant Pseudomonas aeruginosa NCTC 13437 by microdilution broth method. The class given is functional.
Data set [24] is described as follows: Selectivity ratio of cytotoxicity against human WI38 cells to MIC for Klebsiella pneumoniae M6. Format: toxicity, cell-based.
A short description of data set [25]: Selectivity ratio of cytotoxicity against human WI38 cells to MIC for Acinetobacter baumannii ATCC 17978. The class given is toxicity, cell-based.
For data set [26], the system named is DNA. The experiment in a line: Stabilization of 5'-FAM-TAT-ATA-TAG-ATA-TTT-TTT-TAT-CTA-TAT-ATA-3'-TAMRA DNA (unknown origin) assessed as reduction in change in melting temperature at 1:1 to 5:1 ligand to DNA ratio measured after 3 hrs by FRET-based assay relative to control. Format: ADME, nucleic-acid assay.
Data set [27] deals with Acinetobacter baumannii. The experiment in a line: Antimicrobial activity against Acinetobacter baumannii ATCC 17978 by microdilution broth method. The class given is functional.
Data set [28] can be described thus: Selectivity ratio of cytotoxicity against human WI38 cells to MIC for vancomycin sensitive Enterococcus faecalis NCTC 775. The class given is toxicity, cell-based.
The subject of data set [29] is Enterococcus faecalis. The data set can be described thus: Antibacterial activity against vancomycin resistant Enterococcus faecalis NCTC 12201 by microdilution broth method. The class given is functional.
For data set [30], the system named is Klebsiella pneumoniae. The data set can be described thus: Antimicrobial activity against multidrug-resistant Klebsiella pneumoniae NCTC 13368 by microdilution broth method. Format: functional.
Data set [31] in a line: Selectivity ratio of cytotoxicity against human WI38 cells to MIC for Pseudomonas aeruginosa PAO1. The class given is toxicity, cell-based.
Data set [32] in a line: Selectivity ratio of cytotoxicity against human WI38 cells to MIC for methicillin sensitive Staphylococcus aureus NCTC 6571. The class given is toxicity, cell-based.
Data set [33] can be described thus: Selectivity ratio of cytotoxicity against human WI38 cells to MIC for multidrug-resistant Acinetobacter baumannii AYE. Format: toxicity, cell-based.
In another data set the test system is Enterococcus faecium. The data set can be described thus: Antibacterial activity against vancomycin resistant Enterococcus faecium NCTC 12204 by microdilution broth method. The class given is functional.

For the molecule COLISTIN, in the data set on Klebsiella pneumoniae [1], the lowest concentration to inhibit growth (MIC) was 32 µg/mL.

`O=C(O)c1cn(C2CC2)c2cc(N3CCNCC3)c(F)cc2c1=O` [CIPROFLOXACIN]: the Activity in the data set on Acinetobacter baumannii [2] was 8.4 ×10⁻⁷ No_unit; in the data set with Klebsiella pneumoniae [4], 8.9 ×10⁻⁷ No_unit; in the data set with Escherichia coli, 4.4 ×10⁻⁷ No_unit. In addition, the fold change (FC) in [3] lay in the range of 20 to 35; in data set [5] it was 17 to 41; in data set [6], 5 to 13; in data set [7], 14 to 32.

In the case of `CCN(CC)C(=O)c1cc(-c2ccc(NC(=O)c3cc(NC(=O)CCCOc4cc5c(cc4OC)C(=O)N4CCC[C@H]4C=N5)cn3C)cc2)cn1C`, the MIC in the data set with Enterococcus faecalis [8] is 0.5 µg/mL (≈ 0.706 µM); in the data set on Acinetobacter baumannii [9], 32 µg/mL (≈ 45.2 µM); in the data set on Staphylococcus aureus [10], 1 µg/mL (≈ 1.41 µM); in the data set on Staphylococcus aureus [11], 0.25 to 0.5 µg/mL (≈ 0.353 to 0.706 µM); with Klebsiella pneumoniae [13] it was more than 128 µg/mL; in the data set on Pseudomonas aeruginosa [15], more than 128 µg/mL. Besides, the MIC with Staphylococcus aureus [18] is 1 µg/mL (≈ 1.41 µM); against Pseudomonas aeruginosa [23], more than 128 µg/mL; against Acinetobacter baumannii [27] it was 64 µg/mL (≈ 90.4 µM); in the data set with Enterococcus faecalis [29], 0.25 to 0.5 µg/mL (≈ 0.353 to 0.706 µM); with Klebsiella pneumoniae [30] it was more than 128 µg/mL; in the data set with Enterococcus faecium, 0.25 µg/mL (≈ 0.353 µM). The selectivity ratio in data set [12] amounted to 100; in data set [14], 10; in data set [16] it was 100; in data set [17] it was 100; in data set [20] it was 100; in [22], 10. In addition, the selectivity ratio in data set [24] was 10; in data set [25] it was 10; in [28], 100; in [31], 10; in data set [32], 100; in data set [33], 10. In addition, the fold change (FC) in the data set on DNA [19] and in the data set on DNA [26] was 3 to 4 in each case. In addition, the viability at 24 h, 20 µM in data set [21] was more than 85%.
